In patent publication US20100120708A1, “Combination therapy comprising ZD6474 and gemcitabine for anti-cancer therapy” (priority 2002, published 2010):
Several values for one entry are separate records, joined by “and”; a condition that tells them apart may be missing. Equal entries are not always repeated. Structures can show the parent of a compound that is named as a salt.

Tested on: L 3.6 μl human pancreatic cancer cells
Assay: Effects of ZD6474 and gemcitabine therapy on primary pancreatic tumour growth and metastases growing orthotopically in nude mice
Assay type: in vivo
Settings: sacrificed day 32, ZD6474 50 mg/kg oral daily, gemcitabine 100 mg/kg i.p. twice weekly; for Incidence Pancreas (incidence of pancreatic tumours): orthotopic injection into pancreas, treatment from 8 days post-tumour injection; for Incidence Pancreas (incidence of pancreatic tumours) / LN Met (incidence of lymph node metastases) / Liver Met (incidence of liver metastases) / Peritoneal Carcinosis (incidence): animals affected/animals in group; for LN Met (incidence of lymph node metastases) / Liver Met (incidence of liver metastases) / Peritoneal Carcinosis (incidence): orthotopic; for Tumour Weight Average +/− std dev: primary pancreatic tumour weight, control 1231 mg; for Body Weight Average +/− std dev: control 21.4 g
Description: Model to Investigate Effects of ZD6474 and Gemcitabine Therapy on Primary Pancreatic Tumour Growth and Metastases Growing Orthotopically in Nude Mice
Nude mice (n=10 per group) were injected with 1×10^6 […] human pancreatic cancer cells into the pancreas. The mice received one of the following treatment regimes 8 days post-tumour injection:
Group 1—control group received saline by daily oral application; Group 2—a single daily dose of ZD6474 (50 mg/kg oral gavage); Group 3—gemcitabine twice weekly (on days 2 and 5 of each treatment week) (100 mg/kg by intraperitoneal injection (i.p.)); Group 4—a single daily dose of ZD6474 (50 mg/kg oral gavage) and twice weekly gemcitabine (on days 2 and 5 of each treatment week) (GEM: 100 mg/kg i.p.).
The animals were sacrificed 32 days after tumour cell injection.
The incidence of pancreatic tumours, liver metastases, lymph node metastases and peritoneal carcinosis was evaluated. The primary pancreatic tumour weight was measured. All macroscopically enlarged lymph nodes and liver nodules were confirmed by histopathology (H&E staining).

Row | Structure (SMILES) | Incidence Pancreas (incidence of pancreatic tumours) | LN Met (incidence of lymph node metastases) | Liver Met (incidence of liver metastases) | Peritoneal Carcinosis (incidence) | Tumour Weight Average +/− std dev | Tumour Weight Average +/− std dev (listed as gemcitabine) [mg] | Body Weight Average +/− std dev [g]
1 | Nc1ccn([C@@H]2O[C@H](CO)[C@@H](O)C2(F)F)c(=O)n1 [Gemcitabine, 2′-deoxy-2′,2′-difluorocytidine monohydrochloride (β-isomer)] | 9/9 | 9/9 | 4/9 | 3/9 | 836 ± 291 mg | 836 | 21.7 ± 2.1
2 | COc1cc2c(Nc3ccc(Br)cc3F)ncnc2cc1OCC1CCN(C)CC1 [ZD6474, 4-(4-bromo-2-fluoroanilino)-6-methoxy-7-(1-methylpiperidin-4-ylmethoxy)quinazoline] | 10/10 | 3/10 | 1/10 | 1/10 | 541 mg and 541 ± 201 mg | – | 19.2 ± 2.9
